Measurements from patent US11584766B2, “Nicotinamide phosphoribosyltransferase inhibitors and methods for use of the same” (THE TRUSTEES OF INDIANA UNIVERSITY, priority 2018, dated 2023).
Entries after “also recorded” stand apart in the source; their conditions may differ. Where two headings read alike, the source gives them in different places. Blank lines part the entries; values can stand above or below the compound they belong to.

How the values were obtained:
[1] = system: human pulmonary artery smooth muscle cells (hPASMCs); assay: PrestoBlue Assay (viability), hPASMC; type: cell-based; conditions: for IC50: hPASMC, 24 h treatment; for effect on HPASMC viability: dose response, FIG. 8
Procedure: (§1) The effect of the compounds disclosed herein on the viability, proliferation, and apoptosis of human pulmonary artery endothelial cells (“hPAECs,”) and human pulmonary artery smooth muscle cells (“hPASMCs”) was determined using the PrestoBlue Assay (viability), CYQuant Direct or BrdU Assay (proliferation) or Tunel Assay (apoptosis), as described below.
(§2) HPAECs (1×10^4 cells/well) or HPASMCs (2.5×10^3 cells/well) were seeded in 96-well plates for 24 h in full-serum tissue culture medium. The full medium was removed prior to treatment with a NAMPT inhibitor prepared in medium containing 0.1% serum. NAMPT inhibitors were solubilized in 100% DMSO, unless otherwise indicated, prior to preparation of the dose response curve in 100% DMSO. The treatment dose response curve was diluted in 0.1% serum tissue culture medium and administered to cells for 24 h. DMSO diluted in the same medium was used as the vehicle control. Cell viability was measured according to the manufacturer's protocol by adding the PrestoBlue Cell Viability Reagent (ThermoFisher Scientific, #A13261) to cells for 20 min at 37° C. in a tissue culture incubator, followed by reading fluorescence at ex560/em590. Cell proliferation was measured, either in the same wells or in separate experiments, by adding the CyQuant Direct Confirmation Reagent (ThermoFisher Scientific, #C35011) for 1 h at 37° C. in a tissue culture incubator, followed by reading fluorescence at ex485/em538. Proliferation was also measured, in separate experiments, using the BrdU Cell Proliferation Assay (Calbiochem, #QIA58). After treatment with a NAMPT inhibitor for 24 h, BrdU was added to the cells in the presence of the inhibitor, for an additional 24 h and BrdU incorporation was detected according to the manufacturer's protocol. Apoptosis was analyzed by seeding cells (1×10^5 cells/well) in 6-well plates for 24 h in full-serum medium, followed by treatment with a NAMPT inhibitor for 24 h in full-serum medium. Tunel staining and detection was performed using the Tunel Assay Kit (Abcam, #ab66110) according to the manufacturer's protocol.

NAMPT = molecular target: T1, NAMPT (Homo sapiens, UniProt P43490); assay: CycLex NAMPT Colorimetric Assay; type: biochemical; conditions: for IC50: CycLex NAMPT Colorimetric Assay Kit, read-out: NAMPT Inhibition IC50
T1 construct: purchased MBL International Corporation (CycLex NAMPT Colorimetric Assay Kit Ver.2)
T1 sequence (P43490 whole entry): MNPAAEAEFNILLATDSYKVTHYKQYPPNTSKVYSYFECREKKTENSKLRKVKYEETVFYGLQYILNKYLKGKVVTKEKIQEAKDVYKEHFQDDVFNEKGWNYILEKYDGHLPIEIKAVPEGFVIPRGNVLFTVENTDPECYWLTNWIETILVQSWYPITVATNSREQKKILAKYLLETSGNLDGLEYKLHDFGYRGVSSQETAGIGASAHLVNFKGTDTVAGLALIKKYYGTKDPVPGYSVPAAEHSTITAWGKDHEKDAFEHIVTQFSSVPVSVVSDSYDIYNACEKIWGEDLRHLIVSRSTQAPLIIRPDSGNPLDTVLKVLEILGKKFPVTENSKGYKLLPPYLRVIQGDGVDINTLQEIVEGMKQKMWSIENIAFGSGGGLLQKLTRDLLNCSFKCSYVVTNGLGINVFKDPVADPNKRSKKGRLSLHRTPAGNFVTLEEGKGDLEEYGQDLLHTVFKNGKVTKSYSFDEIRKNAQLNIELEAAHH
Procedure: The ability of the compounds of the disclosure to inhibit NAMPT was determined using the CycLex NAMPT Colorimetric Assay Kit Ver.2 by MBL International Corporation.
The assay detects NAMPT activity in recombinant NAMPT or endogenous NAMPT immunoprecipiated from cell lysates according to the scheme shown in FIG. 3. In this method, NAMPT converts nicotinamide to nicotinamide mononucleotide (“NMN”). Subsequently, nicotinamide mononucleotide adenylyltransferase 1 (“NMNAT1”) converts NMN to NAD^+. Resultant NAD^+ can be measured by enzyme cycling reaction using alcohol dehydrogenase (“ADH”), diaphorase and WST-1.

[2] = system: human pulmonary artery endothelial cells (hPAECs); assay: BrdU Assay (proliferation), hPAEC; type: cell-based; conditions: dose response, FIG. 6
Procedure: as §1, §2

[3] = system: human pulmonary artery smooth muscle cells (hPASMCs); assay: BrdU Assay (proliferation), hPASMC; type: cell-based
Procedure: as §1, §2

[4] = system: human pulmonary artery endothelial cells (hPAECs); assay: PrestoBlue Assay (viability), hPAEC; type: cell-based; conditions: for effect on HPAEC viability: dose response, FIG. 4; for IC50: hPAEC, 24 h treatment
Procedure: as §1, §2

[5] = system: human pulmonary artery endothelial cells (hPAECs); assay: CyQUANT Direct Assay (proliferation), hPAEC; type: cell-based; conditions: for effect on HPAEC proliferation (CYQuant Direct assay): dose response, FIG. 5; for IC50: hPAEC, 24 h treatment
Procedure: as §1, §2

[6] = system: human pulmonary artery smooth muscle cells (hPASMCs); assay: Tunel Assay (apoptosis), hPASMC; type: cell-based
Procedure: as §1
HPAECs (1×10^4 cells/well) or HPASMCs (2.5×10^3 cells/well) were seeded in 96-well plates for 24 h in full-serum tissue culture medium. The full medium was removed prior to treatment with a NAMPT inhibitor prepared in medium containing 0.1% serum. NAMPT inhibitors were solubilized in 100% DMSO, unless otherwise indicated, prior to preparation of the dose response curve in 100% DMSO. […] Cell viability was measured according to the manufacturer's protocol by adding the PrestoBlue Cell Viability Reagent (ThermoFisher Scientific, #A13261) to cells for 20 min at 37° C. in a tissue culture incubator, followed by reading fluorescence at ex560/em590. Cell proliferation was measured, either in the same wells or in separate experiments, by adding the CyQuant Direct Confirmation Reagent (ThermoFisher Scientific, #C35011) for 1 h at 37° C. in a tissue culture incubator, followed by reading fluorescence at ex485/em538. Proliferation was also measured, in separate experiments, using the BrdU Cell Proliferation Assay (Calbiochem, #QIA58). […]

[7] = Solubility (2.5% v/v DMSO/water); type: physicochemical
[8] = system: human pulmonary artery endothelial cells (hPAECs); assay: Tunel Assay (apoptosis), hPAEC; type: cell-based; conditions: for IC50: hPAEC; for effect on HPAEC apoptosis: dose response, FIG. 7
Procedure: as §1, §2

[9] = system: human pulmonary artery smooth muscle cells (hPASMCs); assay: CyQUANT Direct Assay (proliferation), hPASMC; type: cell-based; conditions: dose response, FIG. 9
Procedure: as §1, §2

[10] = system: vascular remodeling caused by PAH; conditions: rat models; cited from earlier work
[11] = in vivo; cited from earlier work
HepG2 cells = assay: Seahorse XF Metabolism Assay (Cell Energy Phenotype Test); type: cell-based; design: Baseline OCR / Stressed OCR / Baseline ECAR / Stressed ECAR: unit not given here
Procedure: The effect of the compounds disclosed herein on metabolism was determined using the Seahorse XF Cell Energy Phenotype Test Kit by Agilent Technologies. See Agilent Seahorse XF Cell Energy Phenotype Test Kit, User Guide, Manual Part Number 103325-400, Kit Part Number 103325-100, First Edition, March 2017 Agilent Technologies, Inc. This assay measures mitochondrial respiration and glycolysis under baseline and stressed conditions to determine baseline phenotype, stressed phenotype, and metabolic potential.

[12] = Plasma concentration and biochemical parameters in MCT-induced rats; type: in vivo, rat
Source text: Moreover, significant abnormalities in biochemical parameters and electrolytes were not observed.

[13] = system: Sugen-Hypoxia-induced pulmonary hypertension; assay: Sugen-Hypoxia-induced pulmonary hypertension in rats; type: in vivo, rat; conditions: 5 mg/kg every other day IP, days 35-49
Procedure: (§3) The ability of the compounds disclosed herein to attenuate pulmonary vascular remodeling associated with pulmonary arterial hypertension was determined using monocrotaline (“MCT”)-induced pulmonary hypertension as well as Sugen-Hypoxia-induced pulmonary hypertension in rats.
Sugen 10 mg/kg IP was injected in Sprague Dawley rats who were then exposed to 10% hypoxia for 21 days. After 21 rats were returned to normoxia for 14 days. After 35 when PH was established DGMS-RARI (5 mg/kg every other day) was injected intraperitonealy from days 35-49. At day 49 PH assessments (RVSP measurements via right heart catheterization, RVH measurement via assessment of the ratio between the weight of the right ventricle over the weight of the left ventricle+septum and assessment of right ventricular function via echocardiography) were performed.

[14] = system: monocrotaline (MCT)-induced pulmonary hypertension; assay: MCT-induced pulmonary hypertension in rats; type: in vivo, rat; conditions: 5 mg/kg every other day IP, days 22-35
Procedure: as §3
MCT 60 mg/kg IP was injected in Sprague Dawley rats. After 21 days when PH was established DGMS-RARI (5 mg/kg every other day) was injected intraperitonealy from days 22-35. At day 35 PH assessments (RVSP measurements via right heart catheterization, RVH measurement via assessment of the ratio between the weight of the right ventricle over the weight of the left ventricle+septum and pulmonary vascular remodeling assessment of H&E stained pulmonary arteries) were performed.

[15] = Homo sapiens, Endothelial cell, 24 h

IC50 (NAMPT): 0.015 µM
IC50 ([6]; Homo sapiens): 116 µM
Solubility (2.5% v/v DMSO/water) [7]: Good
IC50 ([8]; Homo sapiens, Endothelial cell): 183 µM
Compound: Cl.O=C(/C=C/c1cccnc1)NCCCCCC(=O)N1c2ccccc2CC1c1ccccc1 (centres unmarked) [DGMS-RAR-7•HCl]
IC50 ([1]; Homo sapiens, 24 h): 31.1 µM
effect on HPASMC viability [1]: dose-dependently decrease cell viability
effect on HPAEC proliferation (BrdU assay) [2]: dose-dependently decrease cell proliferation
IC50 [3]: 63.9 µM
effect on HPAEC viability [4]: dose-dependently decrease cell viability; also recorded: reduction
IC50 [4]: 13.9 µM
effect on HPAEC proliferation (CYQuant Direct assay) ([5]; listed as DGMS-RAR-7-HCl): dose-dependently decrease cell proliferation
effect on HPAEC proliferation (CYQuant Direct assay) ([5]; listed as DGMS-RAR-7.HCl): reduction
IC50 [5]: 26.6 µM
effect on HPAEC apoptosis [8]: dose-dependently decrease apoptosis
effect on HPASMC proliferation (CYQuant Direct assay) [9]: dose-dependently decrease cell proliferation

Compound: O=C(/C=C/c1cccnc1)NCCCCC1CCN(C(=O)c2ccccc2)CC1 [FK866]
IC50 [5, 15]: 60.3 µM
vascular remodeling caused by PAH [10]: prevent and reverse
renal toxicity [11]: exhibit renal toxicity

IC50 [6]: 94.1 µM
IC50 [8]: 117 µM
Compound: O=C(/C=C/c1cccnc1)NCCCCCC(=O)N1c2ccccc2CC1c1ccccc1 (centres unmarked) [DGMS-RAR-7•HO3SMe]
effect on HPASMC viability [1]: dose-dependently decrease cell viability
IC50 [1]: 26.6 µM
effect on HPAEC proliferation (BrdU assay) [2]: dose-dependently decrease cell proliferation
effect on HPAEC viability [4]: dose-dependently decrease cell viability; also recorded: reduction
IC50 [4]: 17.1 µM
effect on HPAEC proliferation (CYQuant Direct assay) ([5]; listed as DGMS-RAR-7-HO3SMe): dose-dependently decrease cell proliferation
effect on HPAEC proliferation (CYQuant Direct assay) ([5]; listed as DGMS-RAR-7.HO3SMe): reduction
IC50 [5]: 31.9 µM
effect on HPAEC apoptosis [8]: dose-dependently decrease apoptosis
effect on HPASMC proliferation (CYQuant Direct assay) [9]: dose-dependently decrease cell proliferation

Compound: O=C(/C=C/c1cccnc1)NCCCCCCn1c(-c2ccccc2)cc2ccccc21 [DGMS-RARI]
effect on HPASMC viability [1]: dose-dependently decrease cell viability
inhibition at 10 µM (NAMPT): 98%
IC50 (NAMPT): 0.014 µM
IC50 [4, 15]: 117 µM
effect on HPAEC viability [4]: dose-dependently decrease cell viability
Baseline ECAR (HepG2 cells; HepG2, 80 nM): 16.16
Baseline OCR (HepG2 cells; HepG2, 80 nM): 98.19
Metabolic Potential (% Baseline ECAR) (HepG2 cells; HepG2, 80 nM): 288.54 % Baseline ECAR
Metabolic Potential (% Baseline OCR) (HepG2 cells; HepG2, 80 nM): 154.82 % Baseline OCR
Stressed ECAR (HepG2 cells; HepG2, 80 nM): 46.64
Stressed OCR (HepG2 cells; HepG2, 80 nM): 152.08
Baseline ECAR (HepG2 cells; HepG2, 2 uM): 12.28
Baseline OCR (HepG2 cells; HepG2, 2 uM): 73.92
Metabolic Potential (% Baseline ECAR) (HepG2 cells; HepG2, 2 uM): 334.84 % Baseline ECAR
Metabolic Potential (% Baseline OCR) (HepG2 cells; HepG2, 2 uM): 154.18 % Baseline OCR
Stressed ECAR (HepG2 cells; HepG2, 2 uM): 37.11
Stressed OCR (HepG2 cells; HepG2, 2 uM): 111.06
Baseline ECAR (HepG2 cells; HepG2, 10 uM): 18.28
Baseline OCR (HepG2 cells; HepG2, 10 uM): 60.26
Metabolic Potential (% Baseline ECAR) (HepG2 cells; HepG2, 10 uM): 194.22 % Baseline ECAR
Metabolic Potential (% Baseline OCR) (HepG2 cells; HepG2, 10 uM): 148.94 % Baseline OCR
Stressed ECAR (HepG2 cells; HepG2, 10 uM): 31.23
Stressed OCR (HepG2 cells; HepG2, 10 uM): 89.62
inhibition at 10 µM (HepG2 cells; Homo sapiens, HepG2 cells, high doses (10 uM), read-out: inhibition of the maximal oxygen consumption rate): ~30%
effect on cellular respiration (HepG2 cells; physiological doses (≤80 nM)): no effect on cellular respiration
abnormalities in biochemical parameters and electrolytes ([12]; 5 mg/kg): not observed
average concentration in rat plasma ([12]; 5 mg/kg intravenously, intraperitoneally and orally): decreased with time
IC50 [5, 15]: 2.88 µM
effect on HPAEC proliferation (CYQuant Direct assay) [5]: dose-dependently decrease cell proliferation
degree of right ventricular dysfunction [13]: decreased
degree of right ventricular hypertrophy [13]: decreased
severity of elevations in RVSP [13]: decreased
degree of pulmonary vascular remodeling [14]: decreased
degree of right ventricular hypertrophy [14]: decreased
severity of elevations in RVSP [14]: decreased

Compound: N#CN=C(NCCCCCCOc1ccc(Cl)cc1)Nc1ccncc1 [CHS-828]
vascular remodeling caused by PAH [10]: prevent and reverse

Compound: CC[Si]1(CC)c2ccccc2N(C(=O)CCCCCNC(=O)/C=C/c2cccnc2)C1C.Cl (centres unmarked) [DGMS-RAR-5•HCl]
effect on HPASMC viability [1]: dose-dependently decrease cell viability
inhibition at 10 µM (NAMPT; 10 μM): 98%
IC50 (NAMPT): 0.023 µM
Solubility (2.5% v/v DMSO/water) [7]: Good
effect on HPASMC proliferation (CYQuant Direct assay) [9]: dose-dependently decrease cell proliferation
